The test system of the assay is Vcap cells (androgen receptor (+) prostate cancer cells). Description: CTG cell proliferation assay (CellTiter-Glo). Particulars: for viability at 0.1 µM / viability at 1 µM / viability at 10 µM: Homo sapiens, VCaP, 120 h; for Cell survival rate: notes of Table 9: 1.0 μM tested compound in combination with 1.0 μM Enzalutamide.
The mark [1] stands for this setting: read-out: Survival rate of Vcap cells, Table 10, tested compound alone, 0.1 μM.
Where [2] appears, read: read-out: Survival rate of Vcap cells, Table 10, tested compound alone, 1.0 μM.
[3] abbreviates: read-out: Survival rate of Vcap cells, Table 10, tested compound alone, 10 μM.
Where [4] appears, read: Table 10, tested compound 0.1 μM in combination with 1 μM B001.
Where [5] appears, read: Table 10, tested compound 1.0 μM in combination with 1 μM B001.
Setting [6] is: Table 10, tested compound 10 μM in combination with 1 μM B001.
[7] abbreviates: read-out: Survival rate of Vcap cells, Table 5, tested compound alone, 0.1 μM.
[8] abbreviates: read-out: Survival rate of Vcap cells, Table 5, tested compound alone, 1.0 μM.
Setting [9] is: read-out: Survival rate of Vcap cells, Table 5, tested compound alone, 10 μM.
Setting [10] is: Table 5, tested compound 0.1 μM in combination with 1 μM ODM-201.
[11] abbreviates: Table 5, tested compound 1.0 μM in combination with 1 μM ODM-201.
[12] abbreviates: Table 5, tested compound 10 μM in combination with 1 μM ODM-201.
Where [13] appears, read: Table 5, tested compound alone, 1.0 μM.
Where [14] appears, read: read-out: Survival rate of Vcap cells, Table 9, tested compound alone, 0.1 μM.
[15] abbreviates: read-out: Survival rate of Vcap cells, Table 9, tested compound alone, 1.0 μM.
Where [16] appears, read: read-out: Survival rate of Vcap cells, Table 9, tested compound alone, 10 μM.
[17] abbreviates: Table 9, tested compound 0.1 μM in combination with 1 μM ARN-509.
The mark [18] stands for this setting: Table 9, tested compound 0.1 μM in combination with 1 μM Enzalutamide.
Setting [19] is: Table 9, tested compound 1.0 μM in combination with 1 μM ARN-509.
The mark [20] stands for this setting: Table 9, tested compound 1.0 μM in combination with 1 μM Enzalutamide.
The mark [21] stands for this setting: Table 9, tested compound 10 μM in combination with 1 μM ARN-509.
Setting [22] is: Table 9, tested compound 10 μM in combination with 1 μM Enzalutamide.
Setting [23] is: Table 4, tested compound alone, 1 μM.
Where [24] appears, read: Table 10, tested compound 0.1 μM in combination with 1 μM K001.
The mark [25] stands for this setting: Table 10, tested compound 1.0 μM in combination with 1 μM K001.
Where [26] appears, read: Table 10, tested compound 10 μM in combination with 1 μM K001.
Setting [27] is: read-out: Survival rate of Vcap cells, Table 4, tested compound alone, 0.1 μM.
The mark [28] stands for this setting: read-out: Survival rate of Vcap cells, Table 4, tested compound alone, 1 μM.
[29] abbreviates: read-out: Survival rate of Vcap cells, Table 4, tested compound alone, 10 μM.

Where two headings read alike, the source gives them in different places.

These results are taken from US20240173312A1, “Pharmaceutical Composition Comprising a Benzoheterocyclic Compound and Androgen Receptor Pathway Modulator and Application Thereof” (KANGPU BIOPHARMACEUTICALS, LTD., priority 2015, published 2024).

Procedure: In vitro test of the inhibition effect of the compound in combination with androgen receptor pathway modulators and the like on the prostate cancer cell proliferation.
The tested compounds were used alone or in combination with other androgen receptor pathway modulators respectively. […] After that, 100 μl of CellTiter-Glo® cell viability assay reagent (Promega, catalogue number G7570) was added to each well and mixed well on a vibrator for 10 minutes to induce cell lysis. The 96-well plate was placed at room temperature for 10 minutes, so as to stabilize its luminescence signal. A white bottom membrane was pasted on the bottom of the plate and the plate was tested using EnSpire.

As to `C[C@](O)(COc1ccc(C#N)cc1)C(=O)Nc1ccc(C#N)c(C(F)(F)F)c1` [MK-2866, reference compound], the viability at 0.1 µM under setting [1] worked out at 76.5%. Besides, the viability at 1 µM under setting [2] amounted to 77.4%. For the same molecule, the viability at 10 µM under setting [3] turned out to be 69.4%. Besides, the “Survival rate of Vcap cells” value is on record as 64.8% under setting [4], 65.6% under setting [5] and 57.8% under setting [6].

Regarding `Nc1cccc2c1C(=O)N(C1CCC(=O)NC1=O)C2=O` (centres unmarked) [F001], under setting [7], the viability at 0.1 µM was 79.7%. The viability at 1 µM under setting [8] is 59.9%. In addition, the viability at 10 µM under setting [9] was found to be 55.7%. Further, the “Survival rate of Vcap cells” value is, setting by setting: under setting [10], 49.4%; under setting [11], 40.9%; under setting [12], 37.3%; under setting [13], 59.9%.

Turning to `[2H]C1(N2Cc3c(N)cccc3C2=O)CCC(=O)NC1=O` (centres unmarked) [B004], the Cell survival rate is recorded as 51.2%. For the same molecule, the viability at 0.1 µM under setting [14] came out at 94.1%. Moreover, the viability at 1 µM under setting [15] stood at 88.4%. Besides, the viability at 10 µM under setting [16] is 88%. The “Survival rate of Vcap cells” value under setting [17] stood at 59.1%. The “Survival rate of Vcap cells” value under setting [18] was determined as 60.4%. The “Survival rate of Vcap cells” value under setting [19] turned out to be 51.2%. For the same molecule, the “Survival rate of Vcap cells” value under setting [20] came to 50.8%. Moreover, the “Survival rate of Vcap cells” value under setting [21] is recorded as 48.0%. Also, the “Survival rate of Vcap cells” value under setting [22] was determined as 51.1%.

Consider `Nc1cccc2c1CN([C@@H]1CCC(=O)NC1=O)C2=O` [B003], for which, under setting [14], the viability at 0.1 µM is 83.7%. The viability at 1 µM under setting [15] amounted to 81.3%. In addition, under setting [16], the viability at 10 µM is 80.4%. For the same molecule, the “Survival rate of Vcap cells” value amounted to 54.0% under setting [17]; 46.5% under setting [19]; 45.4% under setting [20]; 42.4% under setting [21]; 44.2% under setting [22].

Take `[2H][C@@]1(N2Cc3c(N)cccc3C2=O)CCC(=O)NC1=O` [B006]: the Cell survival rate came out at 51.7%. Besides, the viability at 0.1 µM under setting [14] stood at 91.7%. In addition, the viability at 1 µM under setting [15] was determined as 89.7%. Besides, the viability at 10 µM under setting [16] was determined as 85.7%. In addition, the “Survival rate of Vcap cells” value under setting [17] is reported as 63.2%. In addition, the “Survival rate of Vcap cells” value under setting [18] is 61.2%. Also, under setting [19], the “Survival rate of Vcap cells” value was 51.7%. Also, under setting [20], the “Survival rate of Vcap cells” value is listed as 50.5%. For the same molecule, the “Survival rate of Vcap cells” value under setting [21] amounted to 45.0%. In addition, the “Survival rate of Vcap cells” value under setting [22] stood at 48.3%.

Turning to `C[C@]12CC[C@H](O)CC1=CC[C@@H]1[C@@H]2CC[C@]2(C)C(c3cccnc3)=CC[C@@H]12` [Abiraterone, reference compound], the viability at 0.1 µM under setting [1] came to 98.5%. Besides, the viability at 1 µM under setting [2] worked out at 92.4%. Under setting [3], the viability at 10 µM amounted to 81.9%. Besides, the “Survival rate of Vcap cells” value turned out to be 78.9% under setting [4], 74.9% under setting [5] and 66.3% under setting [6].

In the case of `Nc1cccc2c1CN([C@H]1CCC(=O)NC1=O)C2=O` [B002], the Cell survival rate worked out at 44.7%. For the same molecule, the viability at 0.1 µM under setting [14] turned out to be 85.6%. Further, under setting [15], the viability at 1 µM was 79.8%. For the same molecule, the viability at 10 µM under setting [16] amounted to 75.9%. Besides, the “Survival rate of Vcap cells” value under setting [17] came out at 52.5%. Moreover, the “Survival rate of Vcap cells” value under setting [18] was determined as 53.9%. Further, under setting [19], the “Survival rate of Vcap cells” value was 44.7%. Besides, the “Survival rate of Vcap cells” value under setting [20] worked out at 44.7%. Moreover, under setting [21], the “Survival rate of Vcap cells” value was determined as 44.3%. Also, the “Survival rate of Vcap cells” value under setting [22] is recorded as 43.1%.

For the molecule `CC(O)c1cc(C(=O)N[C@@H](C)Cn2ccc(-c3ccc(C#N)c(Cl)c3)n2)[nH]n1` (some centres unmarked) [ODM-201, reference compound], under setting [7], the viability at 0.1 µM turned out to be 90.7%. In addition, under setting [8], the viability at 1 µM was 69%. Besides, under setting [9], the viability at 10 µM stood at 75.4%. For the same molecule, the “Survival rate of Vcap cells” value under setting [13] worked out at 69.0%.

Consider `C[C@]12CC[C@H](O)CC1=CC[C@@H]1[C@@H]2CC[C@]2(C)C(n3cnc4ccccc43)=CC[C@@H]12` [Galeterone, reference compound], for which the “Survival rate of Vcap cells” value runs as follows: (Table 4, tested compound alone, 0.1 μM) 95.9%; under setting [23], 62.8%; (Table 4, tested compound alone, 10 μM) 19.3%.

`C[C@]12C=CC(=O)C=C1CC[C@@H]1[C@@H]2C(=O)C[C@@]2(C)[C@H]1CC[C@]2(O)C(=O)CO` [Prednisone, reference compound]: the viability at 0.1 µM under setting [1] came out at 99.1%. Moreover, the viability at 1 µM under setting [2] came to 99.7%. For the same molecule, the viability at 10 µM under setting [3] is 99.4%. Further, the “Survival rate of Vcap cells” value stood at 87.6% under setting [4]; 91.5% under setting [24]; 78.7% under setting [5]; 74.2% under setting [25]; 73.8% under setting [6]; 68.0% under setting [26].

On to `O=C1CCC(N2Cc3c(OCc4ccc(CN5CCOCC5)cc4)cccc3C2=O)C(=O)N1` (centres unmarked) [D107], for which the viability at 0.1 µM by setting is: (read-out: Survival rate of Vcap cells, Table 3, tested compound alone, 0.1 μM) 85.3%; under setting [27], 85.3%. Further, the viability at 1 µM (read-out: Survival rate of Vcap cells, Table 3, tested compound alone, 1.0 μM) was found to be 77.2% and the viability at 1 µM under setting [28] turned out to be 77.2%. Moreover, the viability at 10 µM by setting is: (read-out: Survival rate of Vcap cells, Table 3, tested compound alone, 10 μM) 69.3%; under setting [29], 69.3%. Moreover, the “Survival rate of Vcap cells” value (Table 3, tested compound 0.1 μM in combination with 1 μM ARN-509) amounted to 37.0%; the “Survival rate of Vcap cells” value (Table 3, tested compound 0.1 μM in combination with 1 μM Enzalutamide) turned out to be 37.3%; the “Survival rate of Vcap cells” value (Table 3, tested compound 1.0 μM in combination with 1 μM ARN-509) stood at 36.3%; the “Survival rate of Vcap cells” value (Table 3, tested compound 1.0 μM in combination with 1 μM Enzalutamide) is listed as 35.0%; the “Survival rate of Vcap cells” value (Table 3, tested compound 10 μM in combination with 1 μM ARN-509) came to 34.2%; the “Survival rate of Vcap cells” value (Table 3, tested compound 10 μM in combination with 1 μM Enzalutamide) is 32.3%. The “Survival rate of Vcap cells” value (Table 3, tested compound alone, 1.0 μM) is given as 77.2%; the “Survival rate of Vcap cells” value (Table 4, tested compound 0.1 μM in combination with 1 μM Abiraterone acetate) was 66.0%; the “Survival rate of Vcap cells” value (Table 4, tested compound 0.1 μM in combination with 1 μM Galeterone) is given as 43.9%; the “Survival rate of Vcap cells” value (Table 4, tested compound 1 μM in combination with 1 μM Abiraterone acetate) came to 61.7%; the “Survival rate of Vcap cells” value (Table 4, tested compound 1 μM in combination with 1 μM Galeterone) is listed as 42.4%; the “Survival rate of Vcap cells” value (Table 4, tested compound 10 μM in combination with 1 μM Abiraterone acetate) is on record as 59.6%. Further, the “Survival rate of Vcap cells” value (Table 4, tested compound 10 μM in combination with 1 μM Galeterone) amounted to 40.0% and the “Survival rate of Vcap cells” value under setting [23] was 77.2%.

In the case of `O=C1CC[C@H](N2Cc3c(OCc4ccc(CN5CCOCC5)cc4)cccc3C2=O)C(=O)N1` [D108], the viability at 0.1 µM under setting [7] stood at 73%. Moreover, the viability at 1 µM under setting [8] came out at 67.3%. For the same molecule, the viability at 10 µM under setting [9] came out at 58.5%. Moreover, the “Survival rate of Vcap cells” value by setting is: under setting [10], 42.7%; under setting [11], 40.1%; under setting [12], 32.8%; under setting [13], 67.3%.

On to `CC(=O)O[C@H]1CC[C@@]2(C)C(=CC[C@@H]3[C@@H]2CC[C@]2(C)C(c4cccnc4)=CC[C@@H]32)C1` [Abiraterone acetate, reference compound], for which the viability at 0.1 µM was 106% under setting [27] and 96.1% under setting [1]. The viability at 1 µM was determined as 91.7% under setting [28] and 97% under setting [2]. In addition, the viability at 10 µM reads like this: under setting [29], 31.4%; under setting [3], 60.5%. For the same molecule, the “Survival rate of Vcap cells” value by setting is: under setting [23], 91.7%; under setting [4], 79.8%; under setting [5], 70.5%; under setting [6], 66.9%.

`CC(O)(CS(=O)(=O)c1ccc(F)cc1)C(=O)Nc1ccc(C#N)c(C(F)(F)F)c1` (centres unmarked) [bicalutamide, reference compound]: the viability at 0.1 µM under setting [1] was 99.2%. For the same molecule, the viability at 1 µM under setting [2] is 94%. In addition, under setting [3], the viability at 10 µM was 92%. For the same molecule, the “Survival rate of Vcap cells” value stood at 77.1% under setting [4]; 78.7% under setting [24]; 69.0% under setting [5]; 64.1% under setting [25]; 67.1% under setting [6]; 61.5% under setting [26].
